# From patent publication US20170252298A1, “Performance-Enhancing Nasal Irrigation” (Backed-by-Science, Inc., priority 2014, published 2017)
# Where “and” joins values, the source holds several entries; their conditions need not be identical. Equal entries are not always repeated.
# Tested on: nasal cilia
# Assay: nasal ciliary beat frequency (CBF), whole field analysis over time
# Assay type: cell-based
# Set-up: Mean CBF (WFA): unit: Hz
# Procedure: The ATP concentration inside the cell is typically 1-10 millimolar (mM). We started with an ATP concentration of 1 mg/ml based on literature data and from testing done by Dr. James Palmer at University of Pennsylvania on ATP concentration for increasing nasal ciliary beat frequency. […] 1 mg/ml from the below charts=1 mg/ml=1 gram per liter=1/507 g/mol=2 mM. Most intracellular ATP concentrations in animals fall within the range of 0.5-10 mM. [table]
# [1] = Plate 1, elapsed 0:00:00, treatment of plate not stated
# [2] = Plate 2, elapsed 0:00:00, ATP 1 mg/ml
# [3] = Plate 2, elapsed 0:00:10, ATP 1 mg/ml
# [4] = Plate 2, elapsed 0:00:30, ATP 1 mg/ml
# [5] = Plate 2, elapsed 0:00:40, ATP 1 mg/ml
# [6] = Plate 2, elapsed 0:00:50, ATP 1 mg/ml
# [7] = Plate 2, elapsed 0:01:00, ATP 1 mg/ml
# [8] = Plate 2, elapsed 0:01:10, ATP 1 mg/ml
# [9] = Plate 2, elapsed 0:01:20, ATP 1 mg/ml
# [10] = Plate 2, elapsed 0:01:30, ATP 1 mg/ml
# [11] = Plate 2, elapsed 0:01:40, ATP 1 mg/ml
# [12] = Plate 2, elapsed 0:01:50, ATP 1 mg/ml
# [13] = Plate 2, elapsed 0:02:00, ATP 1 mg/ml
# [14] = Plate 2, elapsed 0:02:10, ATP 1 mg/ml
# [15] = Plate 2, elapsed 0:02:20, ATP 1 mg/ml
# [16] = Plate 2, elapsed 0:02:30, ATP 1 mg/ml
# [17] = Plate 2, elapsed 0:02:40, ATP 1 mg/ml
# [18] = Plate 2, elapsed 0:02:50, ATP 1 mg/ml
# [19] = Plate 2, elapsed 0:03:00, ATP 1 mg/ml
# [20] = Plate 2, elapsed 0:03:10, ATP 1 mg/ml
# [21] = Plate 2, elapsed 0:03:20, ATP 1 mg/ml
# [22] = Plate 2, elapsed 0:03:30, ATP 1 mg/ml
# [23] = Plate 2, elapsed 0:03:40, ATP 1 mg/ml
# [24] = Plate 2, elapsed 0:03:50, ATP 1 mg/ml
# [25] = Plate 2, elapsed 0:04:00, ATP 1 mg/ml
# [26] = Plate 2, elapsed 0:04:10, ATP 1 mg/ml
# [27] = Plate 2, elapsed 0:04:20, ATP 1 mg/ml
# [28] = Plate 2, elapsed 0:04:30, ATP 1 mg/ml
# [29] = Plate 2, elapsed 0:04:40, ATP 1 mg/ml
# [30] = Plate 2, elapsed 0:04:50, ATP 1 mg/ml
# [31] = Plate 2, elapsed 0:05:00, ATP 1 mg/ml
# [32] = Plate 2, elapsed 0:05:10, ATP 1 mg/ml
# [33] = Plate 2, elapsed 0:05:20, ATP 1 mg/ml
# [34] = Plate 2, elapsed 0:05:30, ATP 1 mg/ml
# [35] = Plate 2, elapsed 0:05:40, ATP 1 mg/ml
# [36] = Plate 2, elapsed 0:05:50, ATP 1 mg/ml
# [37] = Plate 2, elapsed 0:06:00, ATP 1 mg/ml
# [38] = Plate 2, elapsed 0:06:10, ATP 1 mg/ml
# [39] = Plate 2, elapsed 0:06:20, ATP 1 mg/ml
# [40] = Plate 2, elapsed 0:06:30, ATP 1 mg/ml
# [41] = Plate 2, elapsed 0:06:40, ATP 1 mg/ml
# [42] = Plate 2, elapsed 0:06:50, ATP 1 mg/ml
# [43] = Plate 2, elapsed 0:07:00, ATP 1 mg/ml
# [44] = Plate 2, elapsed 0:07:10, ATP 1 mg/ml
# [45] = Plate 2, elapsed 0:07:20, ATP 1 mg/ml
# [46] = Plate 2, elapsed 0:07:30, ATP 1 mg/ml
# [47] = Plate 2, elapsed 0:07:40, ATP 1 mg/ml
# [48] = Plate 2, elapsed 0:07:50, ATP 1 mg/ml
# [49] = Plate 2, elapsed 0:08:00, ATP 1 mg/ml
smiles,measurement,setting,value
"Nc1ncnc2c1ncn2[C@@H]1O[C@H](COP(=O)(O)OP(=O)(O)OP(=O)(O)O)[C@@H](O)[C@H]1O [ATP, adenosine triphosphate]",Active Area,[1],82.86% and 60.42% and 53.54%
same,Mean CBF (WFA),[1],6.75 and 6.14 and 5.59
same,Active Area,[2],22.19%
same,Mean CBF (WFA),[2],8.06
same,Active Area,[3],44.1%
same,Mean CBF (WFA),[3],7.41
same,Active Area,[4],49.49%
same,Mean CBF (WFA),[4],7.42
same,Active Area,[5],49.6%
same,Mean CBF (WFA),[5],7.5
same,Active Area,[6],48.61%
same,Mean CBF (WFA),[6],7.55
same,Active Area,[7],42.47%
same,Mean CBF (WFA),[7],7.66
same,Active Area,[8],43.64%
same,Mean CBF (WFA),[8],7.75
same,Active Area,[9],45.62%
same,Mean CBF (WFA),[9],7.82
same,Active Area,[10],36.91%
same,Mean CBF (WFA),[10],7.92
same,Active Area,[11],40.43%
same,Mean CBF (WFA),[11],7.99
same,Active Area,[12],43.13%
same,Mean CBF (WFA),[12],7.95
same,Active Area,[13],41.96%
same,Mean CBF (WFA),[13],8.01
same,Active Area,[14],43.36%
same,Mean CBF (WFA),[14],8
same,Active Area,[15],42.03%
same,Mean CBF (WFA),[15],8.03
same,Active Area,[16],15.64%
same,Mean CBF (WFA),[16],7.96
same,Active Area,[17],37.46%
same,Mean CBF (WFA),[17],8.02
same,Active Area,[18],40.07%
same,Mean CBF (WFA),[18],8.02
same,Active Area,[19],38.29%
same,Mean CBF (WFA),[19],8.08
same,Active Area,[20],38.85%
same,Mean CBF (WFA),[20],8.1
same,Active Area,[21],37.75%
same,Mean CBF (WFA),[21],8.09
same,Active Area,[22],36.48%
same,Mean CBF (WFA),[22],8.07
same,Active Area,[23],37.41%
same,Mean CBF (WFA),[23],8.07
same,Active Area,[24],36.73%
same,Mean CBF (WFA),[24],8.12
same,Active Area,[25],37.22%
same,Mean CBF (WFA),[25],8.11
same,Active Area,[26],38.13%
same,Mean CBF (WFA),[26],8.09
same,Active Area,[27],36.96%
same,Mean CBF (WFA),[27],8.12
same,Active Area,[28],36.02%
same,Mean CBF (WFA),[28],8.12
same,Active Area,[29],36.21%
same,Mean CBF (WFA),[29],8.06
same,Active Area,[30],34.77%
same,Mean CBF (WFA),[30],8.05
same,Active Area,[31],37.11%
same,Mean CBF (WFA),[31],8.12
same,Active Area,[32],34.86%
same,Mean CBF (WFA),[32],8.08
same,Active Area,[33],35.53%
same,Mean CBF (WFA),[33],8.09
same,Active Area,[34],36.15%
same,Mean CBF (WFA),[34],8.22
same,Active Area,[35],38.41%
same,Mean CBF (WFA),[35],8.15
same,Active Area,[36],38.05%
same,Mean CBF (WFA),[36],8.13
same,Active Area,[37],39.37%
same,Mean CBF (WFA),[37],8.17
same,Active Area,[38],39.15%
same,Mean CBF (WFA),[38],8.14
same,Active Area,[39],37.86%
same,Mean CBF (WFA),[39],8.15
same,Active Area,[40],31.72%
same,Mean CBF (WFA),[40],8.11
same,Active Area,[41],35.94%
same,Mean CBF (WFA),[41],8.21
same,Active Area,[42],36.95%
same,Mean CBF (WFA),[42],8.22
same,Active Area,[43],28.86%
same,Mean CBF (WFA),[43],8.23
same,Active Area,[44],36.92%
same,Mean CBF (WFA),[44],8.2
same,Active Area,[45],38.3%
same,Mean CBF (WFA),[45],8.24
same,Active Area,[46],37.18%
same,Mean CBF (WFA),[46],8.25
same,Active Area,[47],36.54%
same,Mean CBF (WFA),[47],8.23
same,Active Area,[48],35.67%
same,Mean CBF (WFA),[48],8.22
same,Active Area,[49],37.37%
same,Mean CBF (WFA),[49],8.17
